Measured values reported in ChEMBL document CHEMBL1932938, “From COX-2 inhibitor nimesulide to potent anti-cancer agent: synthesis, in vitro, in vivo and pharmacokinetic evaluation” (Eur J Med Chem, 2012).

Assays:
[1] = Solubility of the compound; format: physicochemical
SK-BR-3 = assay: cells; settings: Homo sapiens, SK-BR-3, 48 h
Description: Cytotoxicity against human SK-BR-3 cells after 48 hrs by MTT assay

| Compound | solubility [1] | IC50 (SK-BR-3) |
| --- | --- | --- |
| CCCCCCCCCCCCCCCC(=O)Nc1ccc(N(C)S(C)(=O)=O)c(OCc2cc(C)ccc2C)c1 | Insoluble |  |
| COc1ccc(CC(=O)Nc2ccc(N(C)S(C)(=O)=O)c(OCc3cc(C)ccc3C)c2)cc1OC |  | 34 µM |
| Cc1ccc(C)c(COc2cc(NC(=O)Cc3ccccc3)ccc2N(C)S(C)(=O)=O)c1 |  | > 100 µM |
